Like-named read-outs stand apart in the source and are kept apart here.
Legend:
HBV wild type (U95551) = assay: Cross-resistance in transfected HepG2 cells, wild type; type: cell-based, Hepatitis B virus
HBV genotype D = assay: Anti-HBV activity in HepG2.2.15 cells (extracellular HBV DNA by qPCR); type: cell-based; settings: Hepatitis B virus
Procedure: ATI-2173 was obtained from WuXi SynTheAll. Entecavir (positive control) was obtained from Shanghai Titan Scientific Co., Ltd. HepG2.2.15 cells (derived from human hepatoblastoma cell-like HepG2) contain four 5′ to 3′ tandem copies of the HBV genotype D and were provided by WuXi. HepG2.2.15 cells were cultured in Dulbecco’s modified Eagle medium (DMEM)/F12 (Invitrogen, 11330032) supplemented with 2% fetal bovine serum (FBS) (HyClone, SV30087.03), 1% L-glutamine, 1% minimum essential medium (MEM) nonessential amino acid solution (NEAA), and 1% penicillin-streptomycin solution. QIAamp 96 DNA blood kit was purchased from Qiagen (51162). […] Culture medium containing ATI-2173 or entecavir (serially diluted) was added to cells on day 2 and refreshed on day 5. ATI-2173 dilutions were: 0.0006, 0.0024, 0.0098, 0.0391, 0.1563, 0.6250, 2.5000, and 10.0000 μM. On day 8, cell culture supernatants were collected and DNA was extracted by the QIAamp 96 DNA blood kit. qPCR was run at 95°C for 10 min, then cycled at 95°C for 15 s, 60°C for 1 min, for a total of 40 cycles. HBV DNA content in the samples was calculated according to the standard curve and CT (cycle threshold of qPCR) values of a sample. Data were normalized for maximum and minimum copy numbers.

HBV rtS202G+M204I+M250V = assay: microbe, parasite or virus in culture; type: cell-based; settings: Hepatitis B virus, HepG2
HBV [1] = assay: HBV combination studies with ATI-2173 in primary human hepatocytes (MacSynergy); type: cell-based, Hepatitis B virus; settings: compound combined with ATI-2173, primary human hepatocytes; for Combination index: MacSynergy
[2] = Cell viability (CC50) in HepG2.2.15 cells; settings: human
[3] = system: clevudine-resistant mutants; settings: mutants from viral break-through patients, predominantly M204I; cited from earlier work
HBV rtS202G+M204I = assay: microbe, parasite or virus in culture; type: cell-based; settings: Hepatitis B virus, HepG2
[4] = system: HBV genotypes A, B, C, D, E, F, G, and H; assay: microbe, parasite or virus in culture; type: cell-based; settings: Hepatitis B virus, HepG2, read-out: IC50s, inhibition of HBV DNA across genotypes
HBV coreP25A = assay: microbe, parasite or virus in culture; type: cell-based, Hepatitis B virus; settings: HepG2 cells, mutation coreP25A; read-out: EC50
HBV coreT33N = assay: microbe, parasite or virus in culture; type: cell-based, Hepatitis B virus; settings: HepG2 cells, mutation coreT33N; read-out: EC50
HBV DNA = system: HBV DNA; parameters: method as in PMID 15239097; settings: patients, for 6 months following treatment; cited from earlier work
in vitro = settings: human
Procedure: HK-2 human kidney cells were obtained from ATCC (Manassas, VA) and cultured in Gibco Keratinocyte serum-free medium (Thermo Fisher Scientific, Waltham, MA) supplemented with 10% FBS (Peak Serum, Wellington, CO). Human skeletal muscle cells were obtained from Lonza (Walkersville, MD) and cultured in SkGM-2 skeletal muscle cell growth medium-2 (Lonza). Both HK-2 and skeletal muscle cells were cultured humidified at 37°C and 5% CO2. Cryopreserved human primary hepatocytes and medium were received from Lonza. Cryopreserved iCell cardiomyocytes and cardiomyocyte medium were purchased from Stem Cell Technologies (Vancouver, BC, Canada). Cryopreserved human bone marrow mononuclear cells were purchased from Lonza with HemaTox Myeloid medium purchased from [sequence] […] All cryopreserved cells (human primary hepatocytes, iCell cardiomyocytes, and human bone marrow mononuclear cells) were stored in vapor phase liquid nitrogen until the day of plating. […] Serial dilutions of compounds in DMSO were as follows: 100, 10, 1, 0.1, 0.01, 0.001, 0.0001, and 0.00001 μM (final concentration of DMSO in medium was 0.5%).
HK-2 and skeletal muscle cells were seeded into 96-well plates at 5,000 cells/well and incubated overnight at 37°C and 5% CO2. Human hepatocytes were thawed, diluted in hepatocyte plating medium (Lonza) and seeded into a 96-well, collagen-coated plates at 2.5 × 10^4 cells/well. Hepatocytes were incubated for 6 h at 37°C in 5% CO2, then the medium was aspirated and replaced with hepatocyte culture medium at 50 μl/well, and finally incubated overnight. The iCell cardiomyocytes were thawed, suspended in iCell thawing/plating medium, and plated at 4 × 10^4 cells/well in a gelatin-coated 96-well plate. iCells were incubated for 2 days at 37°C in 7% CO2. […]
Following incubation, cells were dosed and incubated for 72 h at 37°C and 5% CO2. Following incubation, the endpoint cell viability CellTiter-Glo 2.0 assay (Promega, San Luis Obispo, CA) was performed and luminescence data collected on a Synergy 4 plate reader (Biotek, Winooski, VT). […]

HBV [5] = system: HBV; parameters: method as in PMID 8834884, PMID 7786007, PMID 20516559; settings: cell-based in vitro systems; read-out: Anti-HBV EC50; cited from earlier work
[6] = in vivo, po; cited from earlier work
[7] = human, in vivo; cited from earlier work
HBV rtN236T = assay: microbe, parasite or virus in culture; type: cell-based; settings: Hepatitis B virus, HepG2
HBV rtM204I = assay: microbe, parasite or virus in culture; type: cell-based; settings: Hepatitis B virus, HepG2
HBV rtM204V = assay: microbe, parasite or virus in culture; type: cell-based; settings: Hepatitis B virus, HepG2
HBV rtA181V = assay: microbe, parasite or virus in culture; type: cell-based; settings: Hepatitis B virus, HepG2
HBV rtL180M+M204V = assay: microbe, parasite or virus in culture; type: cell-based; settings: Hepatitis B virus, HepG2
HBV rtV173L+M204I = assay: microbe, parasite or virus in culture; type: cell-based; settings: Hepatitis B virus, HepG2

## C=C1[C@H](CO)[C@@H](O)C[C@@H]1n1cnc2c(=O)[nH]c(N)nc21 [Entecavir]
HBV wild type (U95551); Hepatitis B virus
  EC50: 3 nM
HBV genotype D; HepG2.2.15 cells, control compound, read-out: EC50, extracellular HBV DNA
  EC50: 0.6 nM
HBV rtS202G+M204I+M250V
  EC50: 21000 nM
HBV [1]
  Combination effect: Minor synergism (25 to 50 is considered minor synergism)
  Combination index: 38.62
[2]
  CC50: > 50 nM
[3]
  Activity against clevudine-resistant mutants: not
HBV rtS202G+M204I
  EC50: 9960 nM
[4]
  IC50: 0.5 to 2.2 nM

## CCOC(=O)C1=C(CN2CCOCC2)NC(c2nccs2)=NC1c1ccc(F)cc1Br (stereo not shown) [GLS4]
HBV wild type (U95551)
  EC50: 15 nM
HBV coreP25A
  EC50: 295 nM
HBV [1]
  Combination effect: Additive (A combination index of <25 is considered additive)
  Combination index: 7.59
HBV coreT33N
  EC50: 3080 nM

## Cc1cn([C@H]2O[C@@H](CO)[C@H](O)[C@H]2F)c(=O)[nH]c1=O [Clevudine, 1-(2-fluoro-5-methyl-β,L-arabinofuranosyl) uracil]
HBV DNA
  Sustained viral suppression, reduction from baseline: ~2 log10
HBV genotype D; HepG2.2.15, read-out: EC50, extracellular HBV DNA
  EC50: 100 nM
In vitro
  CC50 at 72 h: > 100000 nM
[2]; HepG2.2.15 cells
  CC50: > 10000 nM
HBV [5]
  EC50: ~100 nM
[6]
  Plasma concentrations at effective doses: up to 1 μM
[7]
  Myopathy on long-term exposure: reversible proximal myopathy symptoms emerged

## Nc1ncnc2c1ncn2CCOCP(=O)(O)O [Adefovir]
HBV [1]
  Combination effect: Minor synergism (25 to 50 is considered minor synergism)
  Combination index: 32.85

## COc1ccccc1/C(Br)=C(\NC(=O)c1ccc([N+](=O)[O-])cc1)C(=O)N1CCCCC1 [AT-130]
HBV wild type (U95551)
  EC50: 246 nM
HBV coreT33N
  EC50: > 10000 nM

## C[C@H](Cn1cnc2c(N)ncnc21)OCP(=O)(O)O [Tenofovir]
HBV [1]
  Combination effect: Additive (A combination index of <25 is considered additive)
  Combination index: 8.56
[3]
  Activity against clevudine-resistant mutants: active

## Nc1ccn([C@@H]2CS[C@H](CO)O2)c(=O)n1 [Lamivudine, reference compound]
HBV wild type (U95551); Hepatitis B virus
  EC50: 96 nM
HBV rtN236T
  EC50: 130 nM
HBV rtM204I
  EC50: > 10000 nM
HBV rtM204V
  EC50: 3510 nM
HBV [1]
  Combination effect: Additive (A combination index of <25 is considered additive)
  Combination index: −5.86
HBV rtA181V
  EC50: 210 nM
HBV rtL180M+M204V
  EC50: > 10000 nM
HBV rtV173L+M204I
  EC50: > 10000 nM

From PMC7449170, “ATI-2173, a Novel Liver-Targeted Non-Chain-Terminating Nucleotide for Hepatitis B Virus Cure Regimens” (Antimicrobial Agents and Chemotherapy, 2020)
